Reference: the supplement of paper PMC10307832

Experiments:
Test in all cases: relative viability (nuclei count vs DMSO), 5 days (fraction); higher = more cells survive
Gemcitabine + Foretinib = compound: Nc1ccn([C@@H]2O[C@H](CO)[C@@H](O)C2(F)F)c(=O)n1 [Gemcitabine] + COc1cc2c(Oc3ccc(NC(=O)C4(C(=O)Nc5ccc(F)cc5)CC4)cc3F)ccnc2cc1OCCCN1CCOCC1 [Foretinib] (partner 0.25 µM)
How it was run: (§1)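 Relative viability divides the nuclei count in treated wells by that in vehicle wells. Lung cancer cell lines were seeded in 1536-well plates, dosed by pin tool the next day, and fixed and stained after 5 days in one step with final 0.05% Triton X-100, 1% formaldehyde and 1 ug/ml Hoechst. Dosing was a single drug or a fixed anchor-drug dose plus five library-drug doses (not always all listed) in √10 steps, and values are medians of duplicate plates imaged at 4×.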

Gemcitabine + Luminespib = compound: Nc1ccn([C@@H]2O[C@H](CO)[C@@H](O)C2(F)F)c(=O)n1 [Gemcitabine] + CCNC(=O)c1noc(-c2cc(C(C)C)c(O)cc2O)c1-c1ccc(CN2CCOCC2)cc1 [Luminespib] (partner 0.01 µM)
How it was run: as §1

Gemcitabine + Decitabine = compound: Nc1ccn([C@@H]2O[C@H](CO)[C@@H](O)C2(F)F)c(=O)n1 [Gemcitabine] + Nc1ncn([C@H]2C[C@H](O)[C@@H](CO)O2)c(=O)n1 [Decitabine] (partner 2 µM)
How it was run: as §1

Gemcitabine + Dasatinib = compound: Nc1ccn([C@@H]2O[C@H](CO)[C@@H](O)C2(F)F)c(=O)n1 [Gemcitabine] + Cc1nc(Nc2ncc(C(=O)Nc3c(C)cccc3Cl)s2)cc(N2CCN(CCO)CC2)n1 [Dasatinib] (partner 0.075 µM)
How it was run: as §1

Cell Line | relative viability (Gemcitabine + Foretinib; first compound 0.001 µM) | relative viability (Gemcitabine + Foretinib; first compound 0.003162 µM) | relative viability (Gemcitabine + Foretinib; first compound 0.01 µM) | relative viability (Gemcitabine + Foretinib; first compound 0.03162 µM) | relative viability (Gemcitabine + Foretinib; first compound 0.1 µM) | relative viability (Gemcitabine + Luminespib; first compound 0.001 µM) | relative viability (Gemcitabine + Luminespib; first compound 0.003162 µM) | relative viability (Gemcitabine + Luminespib; first compound 0.01 µM) | relative viability (Gemcitabine + Luminespib; first compound 0.03162 µM) | relative viability (Gemcitabine + Luminespib; first compound 0.1 µM) | relative viability (Gemcitabine + Decitabine; first compound 0.001 µM) | relative viability (Gemcitabine + Decitabine; first compound 0.003162 µM) | relative viability (Gemcitabine + Decitabine; first compound 0.01 µM) | relative viability (Gemcitabine + Decitabine; first compound 0.03162 µM) | relative viability (Gemcitabine + Decitabine; first compound 0.1 µM) | relative viability (Gemcitabine + Dasatinib; first compound 0.001 µM) | relative viability (Gemcitabine + Dasatinib; first compound 0.003162 µM) | relative viability (Gemcitabine + Dasatinib; first compound 0.01 µM) | relative viability (Gemcitabine + Dasatinib; first compound 0.03162 µM) | relative viability (Gemcitabine + Dasatinib; first compound 0.1 µM)
NCI-H441 | 1.2 | 0.711 | 0.421 | 0.21 | 0.211 | 0.343 | 0.332 | 0.198 | 0.189 | 0.177 | 0.208 | 0.212 | 0.17 | 0.167 | 0.127 | 0.569 | 0.282 | 0.215 | 0.129 | 0.133
NCI-H460 | 0.935 | 1.01 | 0.832 | 0.0311 | 0.0132 | 0.0273 | 0.0507 | 0.0367 | 0.0148 | 0.014 | 0.475 | 0.451 | 0.417 | 0.0447 | 0.0204 | 0.495 | 0.524 | 0.46 | 0.0224 | 0.0058
NCI-H520 | 0.887 | 0.684 | 0.286 | 0.199 | 0.153 | 0.22 | 0.231 | 0.224 | 0.201 | 0.252 | 0.525 | 0.48 | 0.289 | 0.189 | 0.198 | 0.212 | 0.258 | 0.161 | 0.151 | 0.154
NCI-H596 | 0.635 | 0.706 | 0.287 | 0.196 | 0.309 | 1.23 | 0.949 | 0.323 | 0.31 | 0.305 | 1.15 | 0.973 | 0.763 | 0.449 | 0.466 | 0.528 | 0.521 | 0.289 | 0.242 | 0.215
NCI-H647 | 1.06 | 0.279 | 0.0991 | 0.0846 | 0.0592 | 0.166 | 0.118 | 0.0907 | 0.0871 | 0.0761 | 0.308 | 0.257 | 0.151 | 0.104 | 0.0673 | 0.1 | 0.0588 | 0.0298 | 0.0257 | 0.0223
NCI-H650 | 0.998 | 0.648 | 0.197 | 0.175 | 0.175 | 0.753 | 0.522 | 0.185 | 0.16 | 0.155 | 0.243 | 0.237 | 0.164 | 0.175 | 0.153 | 0.428 | 0.329 | 0.228 | 0.149 | 0.157
NCI-H661 | 1.04 | 0.871 | 0.956 | 0.341 | 0.218 | 0.905 | 0.934 | 0.694 | 0.274 | 0.209 | 0.569 | 0.582 | 0.465 | 0.346 | 0.237 | 1.07 | 0.814 | 0.428 | 0.176 | 0.18
NCI-H727 | 0.815 | 0.71 | 0.376 | 0.363 | 0.276 | 0.312 | 0.288 | 0.352 | 0.207 | 0.342 | 0.846 | 0.477 | 0.569 | 0.451 | 0.47 | 0.303 | 0.33 | 0.295 | 0.264 | 0.345
